PMC6672008, “Small molecule degraders of the hepatitis C virus protease reduce susceptibility to resistance mutations” (Nature Communications, 2019)
pEC50, pIC50: −log10 of the molar value. Where “and” joins values, the source holds several entries; their conditions need not be identical. Identical values can stand only once. Entries after “also recorded” stand apart in the source; their conditions may differ. Like-named read-outs stand apart in the source and are kept apart here.

How the values were obtained:
[1] = target: DDB1∆B-CRBN (Homo sapiens, UniProt Q96SW2); assay: CRBN-binding assay (fluorescence polarization, displacement of Atto565-lenalidomide); details: fluorescence polarization competition
Experimental: Measurement of compounds binding to CRBN was performed by fluorescence polarization. […] Compounds were dispensed using a D300e Digital Dispenser (HP), normalized to 1% DMSO, and incubated for 60 min at room temperature. The change in fluorescence polarization was monitored using a PHERAstar FS microplate reader (BMG Labtech) for 20 min in 200 s cycles. […]
Increasing concentrations of compounds were titrated to preformed DDB1∆B-CRBN-lenalidomideAtto565 complex. Data are presented as means normalized to DMSO ± standard deviation of n = 4 technical replicates. […]
d Measurement of NS3/4A protease inhibition in vitro. Cell lysates containing the endogenous NS3/4A protease were prepared from cells stably expressing an HCV […]
subgenomic replicon. […]

[2] = Cytotoxicity assay (CellTiter-Glo, 24 h); type: cell-based; details: human, CC50 (50% loss of viability)
[3] = target: HCV NS3-eGFP protein fusion (Hepatitis C virus genotype 2a, UniProt Q99IB8); type: cell-based; details: for degradation of HCV NS3 in the transient assay (in words): increasing concentrations; for DC50: 4 h treatment
[4] = target: T1, HCV NS3 (Hepatitis C virus genotype 2a, UniProt Q99IB8); type: cell-based; details: 1000 nM, 4 h
[5] = target: T1, HCV NS3; type: cell-based; details: percentage of DMSO-treated control, 1000 nM (legend; picture prints 500nM)
[6] = test system: HCV-JFH1-ad; assay: microbe, parasite or virus in culture; type: cell-based, hepatitis C virus
[7] = target: T2, CRBN (Homo sapiens, UniProt Q96SW2); assay: Competitive displacement assay for cellular CRBN engagement (rescue of dBET6-mediated BRD4BD2-eGFP degradation); type: cell-based; details: co-treated with 100 nM dBET6, 5 h
[8] = test system: HCV NS3; type: cell-based, hepatitis C virus; details: 1000 nM, 4 h; selectivity
[9] = test system: HCV-NS3-A156S; assay: microbe, parasite or virus in culture; type: cell-based, hepatitis C virus
[10] = target: T2, CRBN; assay: Cellular thermal shift assay for CRBN engagement (HEK293T cells); type: cell-based; details: 1 h at 37 °C, heated at 61 °C, dose-response
[11] = test system: HCV-NS3-V55A; assay: microbe, parasite or virus in culture; type: cell-based, hepatitis C virus
[12] = test system: wildtype HCV-Jc1; assay: microbe, parasite or virus in culture; type: cell-based, hepatitis C virus
[13] = average value reported, averaged from n = 2
[14] = single experiments, individual experiments
[15] = 500 nM compound + 500 nM lenalidomide, 4 h, Supplementary Fig. 4c
[16] = 500 nM compound + 5000 nM lenalidomide, 4 h, Supplementary Fig. 4c
[17] = 500 nM compound + DMSO, 4 h, Supplementary Fig. 4c
[18] = 1000 nM compound + 5000 nM lenalidomide, 4 h, Fig. 2d
[19] = 1000 nM compound + DMSO, 4 h, Fig. 2d
[20] = Huh7.5 CRBN-/-, HCV-JFH1-ad MOI 0.1, 24 to 48 h post-infection
[21] = wildtype Huh7.5, HCV-JFH1-ad MOI 0.1, 24 to 48 h post-infection
[22] = Hepatitis C virus, Huh7.5, read-out: antiviral IC50 (50% reduction in viral titers), single experiments, Huh7.5, MOI 0.1, treated 24 to 48 h post-infection, individual experiments
[23] = read-out: antiviral IC50 (50% reduction in viral titers), single experiments, Huh7.5, MOI 0.1, treated 24 to 48 h post-infection, individual experiments
[24] = read-out: NS3-eGFP degradation DC50, average value reported, average of n ≥ 2 independent experiments
[25] = read-out: NS3-eGFP degradation DC50, single experiments, individual experiments (source data)
[26] = Hepatitis C virus, Huh7.5, read-out: antiviral IC50 (50% reduction in viral titers), average value reported, Huh7.5, MOI 0.1, treated 24 to 48 h post-infection, average of n ≥ 2 experiments

Row | Structure (SMILES) | binding to CRBN (in words) [1] | CC50 at 24 h [2, 13] | CC50 at 24 h [2, 14] | NS3-eGFP/mCherry ratio normalized to DMSO, average [3, 15] | NS3-eGFP/mCherry ratio normalized to DMSO, single experiments [3, 15] | NS3-eGFP/mCherry ratio normalized to DMSO, average [3, 16] | NS3-eGFP/mCherry ratio normalized to DMSO, single experiments [3, 16] | NS3-eGFP/mCherry ratio normalized to DMSO, average [3, 17] | NS3-eGFP/mCherry ratio normalized to DMSO, single experiments [3, 17] | degradation of HCV NS3 in the transient assay (in words) ([3]; 4 h) | NS3-eGFP/mCherry ratio normalized to DMSO, average [3, 18] | NS3-eGFP/mCherry ratio normalized to DMSO, single experiments [3, 18] | NS3-eGFP/mCherry ratio normalized to DMSO, average [3, 19] | NS3-eGFP/mCherry ratio normalized to DMSO, single experiments [3, 19] | relative NS3 levels (normalized to GAPDH), CRBN-/- cells, average [5, 20] | relative NS3 levels (normalized to GAPDH), wildtype cells, average [5, 21] | pIC50 [6, 23] | DC50 [3, 24] | DC50 [3, 25] | pEC50 [7] | further results
1 | CCC[C@H](NC(=O)[C@@H]1[C@H]2CCC[C@H]2CN1C(=O)[C@@H](NC(=O)[C@@H](NC(=O)c1cnc(C(=O)NCCOCCOCCNc2cccc3c2C(=O)N(C2CCC(=O)N(C)C2=O)C3=O)cn1)C1CCCCC1)C(C)(C)C)C(=O)C(=O)NC1CC1 (some centres unmarked) [DGY-04-035-BUMP] | Neither DGY-04-035-BUMP nor DGY-08-097-BUMP exhibit detectable binding to CRBN; also recorded: loss of CRBN-binding | > 40 µM | > 40 µM | 0.98 | 0.98 and 0.99 | 0.98 | 1.00 and 0.97 | 0.98 | 0.98 and 0.99 | neither compound induced degradation of HCV NS3 | – | – | – | – | – | – | – | – | – | – | –
2 | CCC[C@H](NC(=O)[C@@H]1[C@H]2CCC[C@H]2CN1C(=O)[C@@H](NC(=O)[C@@H](NC(=O)c1cnc(C(=O)NCCOCCOCCOc2cc3c4c(cccc4c2)C(=O)N(C2CCC(=O)N(C)C2=O)C3=O)cn1)C1CCCCC1)C(C)(C)C)C(=O)C(=O)NC1CC1 (some centres unmarked) [DGY-08-097-BUMP] | Neither DGY-04-035-BUMP nor DGY-08-097-BUMP exhibit detectable binding to CRBN; also recorded: loss of CRBN-binding | > 40 µM | > 40 µM | – | – | – | – | – | – | neither compound induced degradation of HCV NS3 | 0.96 | 0.92 and 1.00 | 0.92 | 0.92 | – | – | – | – | – | – | change of HCV NS3 abundance vs DMSO (in words) [4]: No significant degradation of HCV NS3 or any other cellular protein; also recorded: unaffected
3 | CCC[C@H](NC(=O)[C@@H]1[C@H]2CCC[C@H]2CN1C(=O)[C@@H](NC(=O)[C@@H](NC(=O)c1cnc(C(=O)NCCOCCOCCNc2cccc3c2C(=O)N(C2CCC(=O)NC2=O)C3=O)cn1)C1CCCCC1)C(C)(C)C)C(=O)C(=O)NC1CC1 (some centres unmarked) [DGY-04-035] | – | > 40 µM | > 40 µM | 0.66 | 0.67 and 0.64 | 0.86 | 0.87 and 0.85 | 0.54 | 0.54 and 0.53 | – | – | – | – | – | 87% | 48% | 5.58 and 5.40 | 0.489 µM | 0.444 µM and 0.438 µM and 0.379 µM and 0.65 µM and 0.532 µM | 6.19 | relative NS3 levels (normalized to GAPDH), CRBN-/- cells, single experiments [5, 20]: 107% and 74% and 80%; relative NS3 levels (normalized to GAPDH), wildtype cells, single experiments [5, 21]: 54% and 46% and 44%; pIC50 [6, 22]: 5.67
4 | CCC[C@H](NC(=O)[C@@H]1[C@H]2CCC[C@H]2CN1C(=O)[C@@H](NC(=O)[C@@H](NC(=O)c1cnc(C(=O)NCCOCCOCCOc2cc3c4c(cccc4c2)C(=O)N(C2CCC(=O)NC2=O)C3=O)cn1)C1CCCCC1)C(C)(C)C)C(=O)C(=O)NC1CC1 (some centres unmarked) [DGY-08-097] | – | > 40 µM | > 40 µM | – | – | – | – | – | – | – | 0.60 | 0.62 and 0.58 | 0.24 | 0.23 and 0.25 | – | – | 6.15 and 6.20 and 6.37 and 5.91 | 0.05 µM | 0.051 µM and 0.049 µM and 0.046 µM and 0.054 µM | 6.15 | degradation of IMiDs neo-substrates IKZF1 and IKZF3 [8]: no degradation; other proteins significantly affected (of ~8700 quantified) [8]: no other protein of the ~8700 quantified was observed to be significantly affected; pIC50 ([9]; Hepatitis C virus, Huh7.5, read-out: antiviral IC50, NS3-A156S virus, average value reported, Huh7.5, MOI 0.1, treated 24 to 48 h post-infection): 5.81; pIC50 ([9]; Hepatitis C virus, Huh7.5, read-out: antiviral IC50, NS3-A156S virus, single experiments, Huh7.5, MOI 0.1, treated 24 to 48 h post-infection): 5.70; change in antiviral potency, NS3-A156S vs wildtype ([9]; ratio of IC50 values): 3 fold; pIC50 ([9]; read-out: antiviral IC50, NS3-A156S virus, single experiments, Huh7.5, MOI 0.1, treated 24 to 48 h post-infection): 5.96; stabilization of CRBN in cellular thermal shift assay [10]: concentration-dependent stabilization of CRBN; pIC50 [6, 26]: 6.13; pIC50 ([11]; Hepatitis C virus, Huh7.5, read-out: antiviral IC50, NS3-V55A virus, average value reported, Huh7.5, MOI 0.1, treated 24 to 48 h post-infection): 6.29; pIC50 ([11]; Hepatitis C virus, Huh7.5, read-out: antiviral IC50, NS3-V55A virus, single experiments, Huh7.5, MOI 0.1, treated 24 to 48 h post-infection): 6.39; pIC50 ([11]; read-out: antiviral IC50, NS3-V55A virus, single experiments, Huh7.5, MOI 0.1, treated 24 to 48 h post-infection): 6.42 and 6.13; concentrations at which a hook effect was observed in the transient NS3 degradation assay ([3]; 4 h): above 1000 nM; pIC50 ([12]; Hepatitis C virus, Huh7.5, read-out: antiviral IC50, wildtype virus, average value reported, Huh7.5, MOI 0.1, treated 24 to 48 h post-infection): 6.25; pIC50 ([12]; Hepatitis C virus, Huh7.5, read-out: antiviral IC50, wildtype virus, single experiments, Huh7.5, MOI 0.1, treated 24 to 48 h post-infection): 6.20; pIC50 ([12]; read-out: antiviral IC50, wildtype virus, single experiments, Huh7.5, MOI 0.1, treated 24 to 48 h post-infection): 6.38 and 6.20
5 | CCC[C@H](NC(=O)[C@@H]1[C@H]2CCC[C@H]2CN1C(=O)[C@@H](NC(=O)[C@@H](NC(=O)c1cnc(C(=O)NCCCCCCNc2cccc3c2CN(C2CCC(=O)NC2=O)C3=O)cn1)C1CCCCC1)C(C)(C)C)C(=O)C(=O)NC1CC1 (some centres unmarked) [DGY-03-081] | – | > 40 µM | > 40 µM | 0.71 | 0.72 and 0.71 | 0.84 | 0.85 and 0.83 | 0.65 | 0.65 and 0.64 | – | – | – | – | – | 101% | 50% | 5.55 | 0.669 µM | 0.642 µM and 0.695 µM | 6.24 | pIC50 [6, 26]: 5.51; pIC50 [6, 22]: 5.48
